Data as given in the supplement of paper PMC10307832.

How the values were obtained:
Assay in all cases: relative viability (nuclei count vs DMSO), 5 days (fraction); higher = more cells survive
[1] = compound: CCN(CC)CCNC(=O)c1c(C)[nH]c(/C=C2\C(=O)Nc3ccc(F)cc32)c1C [Sunitinib] + C[C@@H](Oc1cc(-c2cnn(C3CCNCC3)c2)cnc1N)c1c(Cl)ccc(F)c1Cl [Crizotinib] (partner 1 µM)
How it was run: (§1)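 A single step with final 0.05% Triton X-100, 1% formaldehyde and 1 ug/ml Hoechst fixed the cells and stained nuclei 5 days after treatment. Lung cancer cell lines in 1536-well plates had been treated by pin tool the day after seeding with one drug alone or a fixed anchor-drug dose plus five library-drug doses (not always all listed) in √10 steps, and nuclei were counted on 4× images. Relative viability is the ratio of nuclei in treated wells to nuclei in vehicle wells, taken as the median of duplicate plates.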

[2] = compound: CCN(CC)CCNC(=O)c1c(C)[nH]c(/C=C2\C(=O)Nc3ccc(F)cc32)c1C [Sunitinib] + O=C(CCCCCCC(=O)Nc1ccccc1)NO [Vorinostat] (partner 1 µM)
How it was run: as §1

[3] = compound: CCN(CC)CCNC(=O)c1c(C)[nH]c(/C=C2\C(=O)Nc3ccc(F)cc32)c1C [Sunitinib] + Cc1cc(Nc2cc(N3CCN(C)CC3)nc(Sc3ccc(NC(=O)C4CC4)cc3)n2)n[nH]1 [Tozasertib] (partner 0.1 µM)
How it was run: as §1

[4] = compound: CCN(CC)CCNC(=O)c1c(C)[nH]c(/C=C2\C(=O)Nc3ccc(F)cc32)c1C [Sunitinib] + CC1(C)CCC(c2ccc(Cl)cc2)=C(CN2CCN(c3ccc(C(=O)NS(=O)(=O)c4ccc(N[C@H](CCN5CCOCC5)CSc5ccccc5)c(S(=O)(=O)C(F)(F)F)c4)cc3)CC2)C1 [Navitoclax] (partner 0.5 µM)
How it was run: as §1

| Cell Line | relative viability ([1]; first compound 0.02 µM) | relative viability ([1]; first compound 0.06325 µM) | relative viability ([1]; first compound 0.2 µM) | relative viability ([1]; first compound 2 µM) | relative viability ([2]; first compound 0.02 µM) | relative viability ([2]; first compound 0.06325 µM) | relative viability ([2]; first compound 0.2 µM) | relative viability ([2]; first compound 0.6325 µM) | relative viability ([2]; first compound 2 µM) | relative viability ([3]; first compound 0.02 µM) | relative viability ([3]; first compound 0.06325 µM) | relative viability ([3]; first compound 0.2 µM) | relative viability ([3]; first compound 0.6325 µM) | relative viability ([3]; first compound 2 µM) | relative viability ([4]; first compound 0.02 µM) | relative viability ([4]; first compound 0.06325 µM) | relative viability ([4]; first compound 0.2 µM) | relative viability ([4]; first compound 0.6325 µM) | relative viability ([4]; first compound 2 µM) | relative viability ([1]; first compound 0.6325 µM) |
| --- | --- | --- | --- | --- | --- | --- | --- | --- | --- | --- | --- | --- | --- | --- | --- | --- | --- | --- | --- | --- |
| HOP-62 | 0.862 | 1.23 | 0.971 | 1.03 | 0.675 | 0.876 | 0.744 | 0.761 | 0.838 | 0.351 | 0.352 | 0.383 | 0.431 | 0.397 | 1.09 | 1.16 | 1.17 | 1.09 | 0.942 | – |
| HCC-827 | 0.911 | 0.964 | 0.965 | 0.947 | 0.843 | 0.861 | 0.668 | 0.875 | 0.714 | 0.405 | 0.416 | 0.449 | 0.439 | 0.407 | 1.01 | 1.05 | 1.04 | 1.01 | 0.978 | 0.939 |
| NCI-H2228 | 0.495 | 0.553 | 0.435 | 0.351 | 0.412 | 0.705 | 0.626 | 1.03 | 0.764 | 0.23 | 0.266 | 0.279 | 0.207 | 0.223 | 0.87 | 0.792 | 1 | 0.96 | 0.524 | 0.583 |
| UMC-11 | 0.578 | 0.569 | 0.571 | 0.556 | 0.329 | 0.373 | 0.401 | 0.349 | 0.388 | 0.206 | 0.207 | 0.198 | 0.199 | 0.197 | 0.302 | 0.307 | 0.367 | 0.281 | 0.272 | 0.692 |
| NCI-H2342 | – | – | – | – | 0.622 | 0.918 | 0.794 | 0.724 | 0.889 | 0.396 | 0.616 | 0.539 | 0.56 | 0.453 | – | – | – | – | – | – |
| ABC-1 | 1.08 | 1.12 | 1.03 | 0.739 | 1.22 | 1.38 | 1.05 | 1.09 | – | 0.187 | 0.189 | 0.172 | 0.18 | 0.154 | – | – | – | – | – | 1.03 |
| HARA | 1.02 | 1.11 | 1.41 | – | 0.525 | 0.518 | 0.687 | 0.441 | 0.553 | 0.105 | 0.148 | 0.216 | 0.076 | 0.0991 | 1.05 | 1.18 | 1.16 | 1.18 | 1.2 | 1.19 |
| HCC-78 | 0.299 | – | 0.348 | 0.365 | 0.427 | 0.418 | 0.531 | 0.481 | 0.465 | 0.411 | 0.502 | 0.548 | 1.43 | 0.43 | 0.756 | – | 0.684 | – | 0.869 | – |
| NCI-H1792 | 0.821 | 1.03 | 1.22 | 1.01 | – | – | – | – | – | – | – | – | – | – | 0.664 | – | 0.777 | 0.537 | 0.66 | 0.979 |
| NCI-H2405 | 0.803 | 0.868 | 0.955 | 0.889 | 1.09 | 0.991 | 1.12 | 1.08 | 1.04 | 0.757 | 0.794 | 0.811 | 0.761 | 0.809 | 0.985 | 0.892 | 0.909 | 1.14 | 0.977 | 0.862 |
| BEN | 0.835 | 0.956 | 1.18 | 0.955 | 0.535 | 0.637 | 0.571 | 0.574 | 0.533 | 0.526 | 0.426 | 0.576 | 0.61 | 0.466 | 0.0567 | 0.0707 | 0.072 | 0.0591 | 0.0799 | 0.93 |
| Calu-6 | 0.711 | 0.772 | 0.852 | 0.79 | – | – | – | – | – | – | – | – | – | – | 0.896 | 0.772 | 0.923 | 0.972 | 0.914 | 0.932 |
| RERF-LC-KJ | 0.802 | 0.838 | 0.934 | 0.855 | 0.701 | 0.733 | 0.674 | 0.66 | 0.707 | 0.508 | 0.487 | 0.547 | 0.47 | 0.541 | 0.844 | 0.899 | 1.13 | 0.876 | 0.977 | 0.786 |
| NCI-H1563 | 0.833 | 0.878 | 0.805 | 0.906 | – | – | – | – | – | – | – | – | – | – | – | – | – | – | – | 0.946 |
| NCI-H661 | 1.09 | 0.987 | 1 | 1.17 | 0.751 | 0.78 | 0.826 | 0.817 | 0.839 | 0.357 | 0.379 | 0.356 | 0.363 | 0.401 | – | – | – | – | – | 0.978 |
| EBC-1 | 0.171 | 0.178 | 0.216 | 0.19 | – | – | – | – | – | – | – | – | – | – | 0.467 | 0.472 | 0.417 | 0.557 | 0.626 | 0.183 |
| NCI-H1793 | – | – | – | – | – | 0.867 | 0.989 | 0.91 | 0.825 | 0.413 | 0.34 | 0.351 | 0.281 | 0.214 | – | 0.528 | 0.438 | 0.458 | 0.472 | – |
| A549 | 0.722 | 0.816 | – | 0.711 | – | – | – | – | – | – | – | – | – | – | 1.16 | 1.3 | 1.36 | – | 1.07 | 0.906 |
| NCI-H1299 | 0.923 | 0.965 | 0.991 | – | – | – | – | – | – | – | – | – | – | – | 1.03 | 1.11 | 1.05 | 1.03 | 1.09 | – |
| NCI-H650 | 0.687 | 0.656 | 0.738 | 0.78 | 0.382 | 0.439 | 0.423 | 0.55 | 0.395 | 0.697 | 0.831 | 0.771 | 0.801 | 0.745 | – | – | – | – | – | 0.717 |
| NCI-H1395 | – | – | – | – | 0.715 | 0.715 | 0.757 | 0.897 | 0.983 | 0.751 | 0.72 | 0.696 | 0.846 | 0.779 | 1.03 | 1.21 | 1.34 | 1.27 | 1.17 | – |
| NCI-H358 | 0.722 | 0.652 | 0.562 | 0.508 | 0.588 | 0.684 | 0.79 | 0.77 | 0.419 | 0.114 | 0.0928 | 0.123 | 0.103 | 0.109 | – | – | – | – | – | 0.642 |
